# Reference: patent US9359409B2, “Antimicrobial peptides, compositions comprising the same and uses thereof” (priority 2012, dated 2016)
# Like-named read-outs stand apart in the source and are kept apart here. Ends that are not written are not given here.
# Legend:
# Escherichia coli = tested on: Escherichia coli
# Protocol: (§1) The 5 designed and synthesized peptides of the invention, plus omiganan (peptide of the state of the art) were evaluated for their antimicrobial capacity in microdilution assays for determining the minimum inhibitory concentration (MIC). A first panel of 8 representative strains was analyzed in these assays, encompassing Gram positive and Gram negative bacteria. […] The lowest MIC values indicate a higher antimicrobial potency.
# (§2) Subsequently, an analysis of a panel of clinical isolates including strains with different resistance mechanisms against conventional antibiotics was carried out, all of which are of clinical relevance. […] In Table 3 the results for a panel of Gram negative bacteria are shown, and in Table 4 for a panel of […] bacteria. In these tables the detected gene/s responsible for the resistance against antibiotics for each strain, are included.
# (§3) Antimicrobial activity was analyzed by means of the determination of the MIC (minimum inhibitory concentration) by the microdilution technique. The technique was carried out in the standard fashion according to (CLSI M07-A9 Vol. 32 No 2. January 2012). The peptide concentration range used was from 0.5 μg/mL to 512 μg/mL in two-fold serial dilutions. The used medium was MH Difco broth supplemented with cations, at a final concentration of Ca^++20-25 mg/L and Mg^++10-12.5 mg/L. The working inoculum used corresponds to a 1/100 dilution of a bacterial suspension equivalent to 0.5 in the Mc Farland scale.
# Pseudomonas aeruginosa = assay: MIC by broth microdilution; type: cell-based
# Protocol: as §1, §2, §3
# Staphylococcus aureus = assay: MIC by broth microdilution; type: cell-based
# Protocol: as §1, §2, §3
# A. baumanii = tested on: A. baumanii
# Protocol: as §2, §3
# E. gallinarum = tested on: E. gallinarum
# Protocol: as §2, §3
# E. raffinosus = tested on: E. raffinosus
# Protocol: as §2, §3
# S. haemolyticus = tested on: S. haemolyticus
# Protocol: as §2, §3
# S. saprophyticus = tested on: S. saprophyticus
# Protocol: as §2, §3
# E. coli = type: cell-based
# Protocol: (§4) In vitro sensitivity assay of aerobically growing bacteria, using the disc diffusion method was performed according to the standards in the M2 document of the CLSI (Clinical and Laboratory Standards Institute: Performance Standards for Antimicrobial Disk Susceptibility Tests.) using the non-amidated peptides
# (§5) In brief, intermediate solutions (10×) of the antimicrobial non-amidated peptides were prepared by serial dilutions 1:2, 1:4 and 1:8 by two-fold dilutions. Then, one part of the solution of the antimicrobial peptide 10× was added to nine parts of melted bacteriological agar. The antibiotic solution was added for each dilution, in the melted agar and cooled to 45-50° C. in a water bath. Then, the agar-antibiotic mixture was placed in a Petri dish until a 3-4 mm depth was reached. The inoculum is prepared with a turbidity of 0.5 in the McFarland scale (approximately 1-2 10^8 CFU/ml). The final inoculum required for the agar dilution test is 10^4 colony forming units (CFU) per “spot” having 5-8 mm in diameter. The inoculated plates must be incubated upside down at 35° C. for a period of 16-20 hs. MIC was recorded as the value of the lower dilution completely inhibiting bacterial development, without considering the development of a single colony or a slight film caused by the inoculum deposit. The final point in these cases will correspond to the concentration at which there is more than 80% reduction in growth as compared with the control.
# K. pneumoniae = type: cell-based
# Protocol: as §4, §5
# P. aeruginosa = type: cell-based
# Protocol: as §4, §5
# S. aureus = type: cell-based
# Protocol: as §4, §5
# S. cohnii = type: cell-based
# Protocol: as §4, §5
# S. warnerii = type: cell-based
# Protocol: as §4, §5
# human erythrocytes = assay: Erythrocyte hemolysis assay (cytotoxicity); type: cell-based; conditions: for therapeutic index (antimicrobial potency over the cytotoxicity percentage): in words
# Protocol: Subsequently, the capacity of the peptides of the invention for lysing human erythrocytes was evaluated, as a measure of their cytotoxicity (Table 2). The assays were carried out according to the Examples and are expressed as a percentage of total lysis obtained with either water or the surfactant Tween 20. In this assays, the lower hemolysis percentage, the lower expected cytotoxic activity.
# Evaluation of cytotoxic activity was performed by means of an erythrocyte hemolysis assay (according to Pure Appl. Chem., Vol. 79, No. 4, pp. 717-728, 2007). In brief, from a volume of heparinized human whole blood, 3 times that volume of PBS is added and centrifuged 10 minutes at 1500 rpm, repeating the washing two more times. 10% blood solutions in PBS were prepared with that pellet. Subsequently, each group was added the corresponding peptide at the indicated concentration and incubated at 37° C. for 30 minutes. […]
# E. faecalis = tested on: E. faecalis
# Protocol: as §2, §3
# [1] = E. coli ABC11, resistance gene ctx-m-2
# [2] = E. coli Cos15, resistance gene per + tem
# [3] = E. coli LCA1, resistance gene ctx-m-2 + tem-1
# [4] = E. coli M5306, resistance gene ctx-m-2 + tem-1 + per-2
# [5] = E. coli M7859, resistance gene cit
# [6] = E. coli NEU23, resistance gene oxa-GIII + tem
# [7] = P. aeruginosa M7525, resistance gene spm
# [8] = P. aeruginosa M7712, resistance gene spm
# [9] = P. aeruginosa M7723, resistance gene kpc
# [10] = P. aeruginosa M7728, resistance gene imp
# [11] = P. aeruginosa M7907, resistance gene per
# [12] = S. aureus 28, resistance gene ermA
# [13] = S. aureus 33, resistance gene msrA
# [14] = S. aureus 204, resistance gene ermA
# [15] = S. aureus 239, resistance gene ermC
# [16] = S. aureus M2832, resistance gene mecA
# [17] = S. aureus M4046, resistance gene mecA
# [18] = S. aureus M6276, resistance gene ermA + lnuA
# [19] = S. aureus M6784, resistance gene mecA
# [20] = A. baumanii FAV-1, resistance gene per + oxa-51 + oxa-58
# [21] = A. baumanii M5179, resistance gene oxa-51
# [22] = A. baumanii M5277, resistance gene per
# [23] = A. baumanii M5282, resistance gene oxa-51
# [24] = A. baumanii M7489, resistance gene oxa-51 + tem
# [25] = A. baumanii M7978, resistance gene imp
# [26] = A. baumanii M13523, resistance gene oxa-51
# [27] = E. gallinarum M2685, resistance gene vanC1 + vanA
# [28] = E. gallinarum M2723, resistance gene vanC1 + vanA
substance,measurement,setting,value
"RIVQRIKKWLLKWKKLGY-NH2 [peptide 5, RIVQRIKKWLLKWKKLGY]",MIC,Escherichia coli; [1],32 µg/mL
same,MIC,Escherichia coli; [2],64 µg/mL
same,MIC,Escherichia coli; [3],64 µg/mL
same,MIC,Escherichia coli; [4],64 µg/mL
same,MIC,Escherichia coli; [5],16 µg/mL
same,MIC,Escherichia coli; [6],32 µg/mL
same,MIC,Pseudomonas aeruginosa; [7],64 µg/mL
same,MIC,Pseudomonas aeruginosa; [8],64 µg/mL
same,MIC,Pseudomonas aeruginosa; [9],32 µg/mL
same,MIC,Pseudomonas aeruginosa; [10],64 µg/mL
same,MIC,Pseudomonas aeruginosa; [11],64 µg/mL
same,MIC,Staphylococcus aureus; [12],64 µg/mL
same,MIC,Staphylococcus aureus; [13],64 µg/mL
same,MIC,Staphylococcus aureus; [14],32 µg/mL
same,MIC,Staphylococcus aureus; [15],64 µg/mL
same,MIC,"Staphylococcus aureus; S. aureus ATCC29213, WT",32 µg/mL
same,MIC,Staphylococcus aureus; [16],64 µg/mL
same,MIC,Staphylococcus aureus; [17],32 µg/mL
same,MIC,Staphylococcus aureus; [18],64 µg/mL
same,MIC,Staphylococcus aureus; [19],32 µg/mL
same,MIC,A. baumanii; [20],16 µg/mL
same,MIC,A. baumanii; [21],32 µg/mL
same,MIC,A. baumanii; [22],8 µg/mL
same,MIC,A. baumanii; [23],8 µg/mL
same,MIC,"A. baumanii; A. baumanii M5949, resistance gene oxa-23 + oxa-GVI",16 µg/mL
same,MIC,A. baumanii; [24],16 µg/mL
same,MIC,A. baumanii; [25],8 µg/mL
same,MIC,"A. baumanii; A. baumanii M9665, resistance gene oxa-51",32 µg/mL
same,MIC,A. baumanii; [26],4 µg/mL
same,MIC,E. gallinarum; [27],16 µg/mL
same,MIC,E. gallinarum; [28],16 µg/mL
same,MIC,E. raffinosus,8 µg/mL
same,MIC,S. haemolyticus,8 µg/mL
same,MIC,S. saprophyticus,8 µg/mL
same,MIC in agar dilution,E. coli,64 µg/mL
same,MIC in agar dilution,K. pneumoniae,>128 µg/mL
same,MIC in agar dilution,P. aeruginosa,>128 µg/mL
same,MIC in agar dilution,S. aureus,>128 µg/mL
same,MIC in agar dilution,S. cohnii,8 µg/mL
same,MIC in agar dilution,S. warnerii,8 µg/mL
same,therapeutic index (antimicrobial potency over the cytotoxicity percentage),human erythrocytes,highest therapeutic index values
WPKWWKWKRRWGRKKAKKRRG-NH2 [peptide 1],MIC,Escherichia coli; [1],128 µg/mL
same,MIC,Escherichia coli; [2],128 µg/mL
same,MIC,Escherichia coli; [3],128 µg/mL
same,MIC,Escherichia coli; [4],128 µg/mL
same,MIC,Escherichia coli; [5],128 µg/mL
same,MIC,"Escherichia coli; E. coli M9209, resistance gene kpc",128 µg/mL
same,MIC,Escherichia coli; [6],128 µg/mL
same,MIC,"Pseudomonas aeruginosa; P. aeruginosa M5109, resistance gene vim",128 µg/mL
same,MIC,"Pseudomonas aeruginosa; P. aeruginosa M5470, resistance gene ND",128 µg/mL
same,MIC,Pseudomonas aeruginosa; [7],64 µg/mL
same,MIC,Pseudomonas aeruginosa; [8],64 µg/mL
same,MIC,Pseudomonas aeruginosa; [9],64 µg/mL
same,MIC,Pseudomonas aeruginosa; [10],128 µg/mL
same,MIC,Pseudomonas aeruginosa; [11],128 µg/mL
same,MIC,Staphylococcus aureus; [12],32 µg/mL
same,MIC,Staphylococcus aureus; [13],32 µg/mL
same,MIC,Staphylococcus aureus; [14],64 µg/mL
same,MIC,Staphylococcus aureus; [15],32 µg/mL
same,MIC,"Staphylococcus aureus; S. aureus ATCC29213, WT",32 µg/mL
same,MIC,Staphylococcus aureus; [16],32 µg/mL
same,MIC,Staphylococcus aureus; [17],32 µg/mL
same,MIC,Staphylococcus aureus; [18],16 µg/mL
same,MIC,Staphylococcus aureus; [19],32 µg/mL
same,MIC,A. baumanii; [20],64 µg/mL
same,MIC,A. baumanii; [21],64 µg/mL
same,MIC,A. baumanii; [22],64 µg/mL
same,MIC,A. baumanii; [23],64 µg/mL
same,MIC,A. baumanii; [24],64 µg/mL
same,MIC,A. baumanii; [25],64 µg/mL
same,MIC,A. baumanii; [26],64 µg/mL
same,MIC,E. faecalis,64 µg/mL
same,MIC,"E. faecalis; E. faecalis ATCC 51299, resistance gene vanB",256 µg/mL
same,MIC,"E. faecalis; E. faecalis M4449, resistance gene vanA",128 µg/mL
same,MIC,"E. faecalis; E. faecalis M4899, resistance gene vanB",256 µg/mL
same,MIC,"E. faecalis; E. faecalis M4992, resistance gene vanA",128 µg/mL
same,MIC,"E. faecalis; E. faecalis M6383, resistance gene vanA",128 µg/mL
same,MIC,"E. faecalis; E. faecalis M6534, resistance gene vanB",128 µg/mL
same,MIC,E. gallinarum; [27],16 µg/mL
same,MIC,E. gallinarum; [28],32 µg/mL
same,MIC,S. haemolyticus,16 µg/mL
same,MIC,S. saprophyticus,16 µg/mL
same,MIC in agar dilution,"E. coli; non-amidated peptides, E. coli ATCC 25922, WT",>128 µg/mL
same,MIC in agar dilution,"K. pneumoniae; non-amidated peptides, K. pneumoniae M13540, KPC",>128 µg/mL
same,MIC in agar dilution,P. aeruginosa,>128 µg/mL
same,MIC in agar dilution,"P. aeruginosa; non-amidated peptides, P. aeruginosa M13513, KPC",>128 µg/mL
same,MIC in agar dilution,"S. aureus; non-amidated peptides, S. aureus ATCC29213, MSSA",>128 µg/mL
same,MIC in agar dilution,"S. aureus; non-amidated peptides, S. aureus M6794, MRSA",>128 µg/mL
same,MIC in agar dilution,S. cohnii,16 µg/mL
same,MIC in agar dilution,S. warnerii,16 µg/mL
same,therapeutic index (antimicrobial potency over the cytotoxicity percentage),human erythrocytes,highest therapeutic index values
same,Hemolysis % (1% Tween20),"human erythrocytes; peptide 128 ug/ml, percentage of total lysis obtained with 1% Tween20",4%
same,Hemolysis % (water),"human erythrocytes; peptide 128 ug/ml, percentage of total lysis obtained with water",3.4%
same,OD 540 nm,"human erythrocytes; peptide 128 ug/ml, supernatant of human erythrocytes, 37° C., 30 minutes",0.067
